Source: publication PMC10098062 (Molecular Plant Pathology, 2023)

Target: SstF F299A (SFN-sensing transcription factor, LysR family) (Xanthomonas campestris, UniProt Q8PAP2, F299A)
Assay: biochemical

For `C[S+]([O-])CCCCN=C=S` (stereo not shown) [SFN, Sulforaphane], the Kd was 143 µM.
